For 27 molecules, IC50 results are on record in US8163771B2, “11 β-HSD1 modulators” (Exelixis, Inc., priority 2008, dated 2012).

For the assay, the target named is T1, recombinant human 11 β-HSD1 (Homo sapiens, UniProt P28845).
T1 construct: made in house; host or cells: E. coli
The experiment in a line: 11 β-HSD1 SPA Assay (Scintillation Proximity Assay). The class given is biochemical. The procedure, abridged: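 E. coli-expressed human enzyme (30-100 nM) with tritiated cortisone 40 nM and NADPH 1 mM in HEPES buffer pH7.4, 2 hours at room temperature. Stopped with protein A SPA beads carrying anti-cortisol antibody and glycyrrhetinic acid; counted after overnight incubation. IC50 from percent inhibition between no-enzyme and no-compound signals.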

T1 sequence (P28845 whole entry): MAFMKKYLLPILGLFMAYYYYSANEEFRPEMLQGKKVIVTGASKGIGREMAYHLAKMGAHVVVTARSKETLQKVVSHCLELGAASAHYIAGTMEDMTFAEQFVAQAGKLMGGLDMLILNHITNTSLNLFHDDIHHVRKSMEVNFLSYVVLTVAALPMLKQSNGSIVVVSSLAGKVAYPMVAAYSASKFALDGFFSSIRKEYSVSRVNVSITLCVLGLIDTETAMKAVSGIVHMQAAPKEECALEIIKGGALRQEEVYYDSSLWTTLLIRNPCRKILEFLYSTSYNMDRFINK

For `CC(C)(Oc1ncc(C(F)(F)F)cc1Cl)C(=O)N[C@H]1C[C@H]2CC[C@@H](C1)N2c1ccc(C(N)=O)cn1` [Example 149, 6-{3-endo-[(2-{[3-chloro-5-(trifluoromethyl)pyridin-2-yl]oxy}-2-methylpropanoyl)amino]-8-azabicyclo[3.2.1]oct-8-yl}pyridine-3-carboxamide], the IC50 is less than 200 nM.
Turning to `CC(C)(Oc1ccc(C(F)(F)F)cn1)C(=O)N[C@H]1C[C@H]2CC[C@@H](C1)N2c1ccc(C(N)=O)cn1` [Example 150], the IC50 was less than 200 nM.
Regarding `CC(C)(Oc1ncc(C(F)(F)F)cc1Cl)C(=O)N[C@H]1C[C@H]2CC[C@@H](C1)N2c1ccc(C(=O)NCC(F)(F)F)cn1` [Example 151, 6-{3-endo-[(2-{[3-chloro-5-(trifluoromethyl)pyridin-2-yl]oxy}-2-methylpropanoyl)amino]-8-azabicyclo[3.2.1]oct-8-yl}-N-(2,2,2-trifluoroethyl)pyridine-3-carboxamide], the IC50 was less than 200 nM.
With `CC(C)(Oc1ccc(C(F)(F)F)cn1)C(=O)N[C@H]1C[C@H]2CC[C@@H](C1)N2c1ccc(C(=O)NCC(F)(F)F)cn1` [Example 152, 6-{3-endo-[(2-methyl-2-{[5-(trifluoromethyl)pyridin-2-yl]oxy}propanoyl)amino]-8-azabicyclo[3.2.1]oct-8-yl}-N-(2,2,2-trifluoroethyl)pyridine-3-carboxamide], the 50% inhibitory concentration (IC50) was less than 2000 nM.
On to `CC(C)(Oc1ccc(F)c(Cl)c1Cl)C(=O)N[C@H]1C[C@H]2CC[C@@H](C1)N2c1ccc(S(C)(=O)=O)cn1` [Example 153, 2-[(2,3-dichloro-4-fluorophenyl)oxy]-2-methyl-N-{8-[5-(methylsulfonyl)pyridin-2-yl]-8-azabicyclo[3.2.1]oct-3-endo-yl}propanamide], for which the half-inhibitory concentration (IC50) was less than 200 nM.
With `CC(C)(Oc1cc(Cl)c(F)cc1Cl)C(=O)N[C@H]1C[C@H]2CC[C@@H](C1)N2c1ccc(S(C)(=O)=O)cn1` [Example 154, 2-[(2,5-dichloro-4-fluorophenyl)oxy]-2-methyl-N-{8-[5-(methylsulfonyl)pyridin-2-yl]-8-azabicyclo[3.2.1]oct-3-endo-yl}propanamide], the concentration for half-maximal inhibition (IC50) was less than 200 nM.
The value for `CC(C)(Oc1ccc(F)cc1Cl)C(=O)N[C@H]1C[C@H]2CC[C@@H](C1)N2c1ccc(S(C)(=O)=O)cn1` [Example 155, 2-[(2-chloro-4-fluorophenyl)oxy]-2-methyl-N-{8-[5-(methylsulfonyl)pyridin-2-yl]-8-azabicyclo[3.2.1]oct-3-endo-yl}propanamide] was less than 200 nM; that for `CC(C)(Oc1ccc(Cl)cc1Cl)C(=O)N[C@H]1C[C@H]2CC[C@@H](C1)N2c1cccc(S(C)(=O)=O)c1` [Example 156, 2-[(2,4-dichlorophenyl)oxy]-2-methyl-N-{8-[3-(methylsulfonyl)phenyl]-8-azabicyclo[3.2.1]oct-3-endo-yl}propanamide] was less than 2000 nM; that for `CC(C)(Oc1cc(Cl)c(F)cc1Cl)C(=O)N[C@H]1C[C@H]2CC[C@@H](C1)N2c1ccc(S(N)(=O)=O)cn1` [Example 157, N-{8-[5-(aminosulfonyl)pyridin-2-yl]-8-azabicyclo[3.2.1]oct-3-endo-yl}-2-[(2,5-dichloro-4-fluorophenyl)oxy]-2-methylpropanamide] was less than 200 nM.
Take `CC(C)(Oc1ccc(F)cc1Cl)C(=O)N[C@H]1C[C@H]2CC[C@@H](C1)N2c1ccc(S(N)(=O)=O)cn1` [Example 158, N-{8-[5-(aminosulfonyl)pyridin-2-yl]-8-azabicyclo[3.2.1]oct-3-endo-yl}-2-[(2-chloro-4-fluorophenyl)oxy]-2-methylpropanamide]: the IC50 was less than 200 nM.
Regarding `CC(C)(Oc1ccc(F)cc1Cl)C(=O)N[C@H]1C[C@H]2CC[C@@H](C1)N2c1ncc(C(=O)NCC(F)(F)F)cc1F` [Example 159, 6-[3-endo-({2-[(2-chloro-4-fluorophenyl)oxy]-2-methylpropanoyl}amino)-8-azabicyclo[3.2.1]oct-8-yl]-5-fluoro-N-(2,2,2-trifluoroethyl)pyridine-3-carboxamide], the IC50 is less than 200 nM.
The value for `CC(C)(Oc1ccc(Cl)cc1Cl)C(=O)N[C@H]1C[C@H]2CC[C@@H](C1)N2c1ncc(C(=O)NCC(F)(F)F)cc1F` [Example 160, 6-[3-endo-({2-[(2,4-dichlorophenyl)oxy]-2-methylpropanoyl}amino)-8-azabicyclo[3.2.1]oct-8-yl]-5-fluoro-N-(2,2,2-trifluoroethyl)pyridine-3-carboxamide] was less than 200 nM; that for `CC(C)(Oc1ncc(Cl)cc1Cl)C(=O)N[C@H]1C[C@H]2CC[C@@H](C1)N2c1ncc(C(=O)NCC(F)(F)F)cc1F` [Example 161, 6-[3-endo-({2-[(3,5-dichloropyridin-2-yl)oxy]-2-methylpropanoyl}amino)-8-azabicyclo[3.2.1]oct-8-yl]-5-fluoro-N-(2,2,2-trifluoroethyl)pyridine-3-carboxamide] was less than 200 nM.
In the case of `CC(C)(Oc1cc(Cl)c(F)cc1Cl)C(=O)N[C@H]1C[C@H]2CC[C@@H](C1)N2c1ncc(C(=O)NCC(F)(F)F)cc1F` [Example 162, 6-[3-endo-({2-[(2,5-dichloro-4-fluorophenyl)oxy]-2-methylpropanoyl}amino)-8-azabicyclo[3.2.1]oct-8-yl]-5-fluoro-N-(2,2,2-trifluoroethyl)pyridine-3-carboxamide], the half-inhibitory concentration (IC50) is less than 200 nM.
For `CC(C)(Oc1ccc(Cl)cc1Cl)C(=O)N[C@H]1C[C@H]2CC[C@@H](C1)N2c1ccc(C(=O)NC2CC2)nc1` [Example 163, N-cyclopropyl-5-[3-endo-({2-[(2,4-dichlorophenyl)oxy]-2-methylpropanoyl}amino)-8-azabicyclo[3.2.1]oct-8-yl]pyridine-2-carboxamide], the concentration for half-maximal inhibition (IC50) was less than 200 nM.
Turning to `CC(C)(Oc1ccccc1C(F)(F)F)C(=O)N[C@H]1C[C@H]2CC[C@@H](C1)N2c1ccc(C(N)=O)cn1` [Example 164, 6-{3-endo-[(2-methyl-2-{[2-(trifluoromethyl)phenyl]oxy}propanoyl)amino]-8-azabicyclo[3.2.1]oct-8-yl}pyridine-3-carboxamide], the IC50 is less than 200 nM.
Take `CC(C)(C(=O)N[C@H]1C[C@H]2CC[C@@H](C1)N2c1ccc(C(N)=O)cn1)c1ccc(F)c(F)c1` [Example 165, 6-(3-endo-{[2-(3,4-difluorophenyl)-2-methylpropanoyl]amino}-8-azabicyclo[3.2.1]oct-8-yl)pyridine-3-carboxamide]: the half-maximal inhibitory concentration (IC50) is less than 200 nM.
As for `CC(C)(Oc1ccc(Cl)c(Cl)c1)C(=O)N[C@H]1C[C@H]2CC[C@@H](C1)N2c1ccc(C(=O)NCC(F)(F)F)cc1` [Example 166, 4-[3-endo-({2-[(3,4-dichlorophenyl)oxy]-2-methylpropanoyl}amino)-8-azabicyclo[3.2.1]oct-8-yl]-N-(2,2,2-trifluoroethyl)benzamide], the concentration for half-maximal inhibition (IC50) is less than 200 nM.
Consider `CC(C)(Oc1ccc(Cl)c(F)c1)C(=O)N[C@H]1C[C@H]2CC[C@@H](C1)N2c1ccc(C(=O)NCC(F)(F)F)cc1` [Example 167, 4-[3-endo-({2-[(4-chloro-3-fluorophenyl)oxy]-2-methylpropanoyl}amino)-8-azabicyclo[3.2.1]oct-8-yl]-N-(2,2,2-trifluoroethyl)benzamide], for which the IC50 is less than 200 nM.
As to `CC(C)(Oc1ccc(F)cc1C(F)(F)F)C(=O)N[C@H]1C[C@H]2CC[C@@H](C1)N2c1ccc(C(N)=O)cn1` [Example 168, 6-{3-endo-[(2-{[4-fluoro-2-(trifluoromethyl)phenyl]oxy}-2-methylpropanoyl)amino]-8-azabicyclo[3.2.1]oct-8-yl}pyridine-3-carboxamide], the half-inhibitory concentration (IC50) was less than 200 nM.
The value for `CC(C)(Oc1ccc(Cl)cc1C(F)(F)F)C(=O)N[C@H]1C[C@H]2CC[C@@H](C1)N2c1ccc(C(N)=O)cn1` [Example 169, 6-{3-endo-[(2-{[4-chloro-2-(trifluoromethyl)phenyl]oxy}-2-methylpropanoyl)amino]-8-azabicyclo[3.2.1]oct-8-yl}pyridine-3-carboxamide] was less than 200 nM; that for `CC(C)(Oc1ccc(Cl)cc1Cl)C(=O)N[C@H]1C[C@H]2CC[C@@H](C1)N2c1ccc(C(=O)NCC(F)(F)F)nc1` [Example 170, 5-[3-endo-({2-[(2,4-dichlorophenyl)oxy]-2-methylpropanoyl}amino)-8-azabicyclo[3.2.1]oct-8-yl]-N-(2,2,2-trifluoroethyl)pyridine-2-carboxamide] was less than 200 nM; that for `CC(C)(Oc1ccc(Cl)cc1Cl)C(=O)N[C@H]1C[C@H]2CC[C@@H](C1)N2c1cc(C(=O)NCC(F)(F)F)ccn1` [Example 171, 2-[3-endo-({2-[(2,4-dichlorophenyl)oxy]-2-methylpropanoyl}amino)-8-azabicyclo[3.2.1]oct-8-yl]-N-(2,2,2-trifluoroethyl)pyridine-4-carboxamide] was less than 2000 nM.
The value for `CC(C)(Oc1ccc(C(F)(F)F)cc1)C(=O)N[C@H]1C[C@H]2CC[C@@H](C1)N2c1ccc(C(N)=O)cn1` [Example 172, 6-{3-endo-[(2-methyl-2-{[4-(trifluoromethyl)phenyl]oxy}propanoyl)amino]-8-azabicyclo[3.2.1]oct-8-yl}pyridine-3-carboxamide] was less than 200 nM; that for `CC(C)(Oc1ccc(F)cc1Cl)C(=O)N[C@H]1C[C@H]2CC[C@@H](C1)N2c1ccc(S(C)(=O)=O)cc1` [Example 173, 2-[(2-chloro-4-fluorophenyl)oxy]-2-methyl-N-{8-[4-(methylsulfonyl)phenyl]-8-azabicyclo[3.2.1]oct-3-endo-yl}propanamide] was less than 200 nM.
Regarding `CC(C)(Oc1cc(Cl)c(F)cc1Cl)C(=O)N[C@H]1C[C@H]2CC[C@@H](C1)N2c1ccc(S(C)(=O)=O)cc1` [Example 174, 2-[(2,5-dichloro-4-fluorophenyl)oxy]-2-methyl-N-{8-[4-(methylsulfonyl)phenyl]-8-azabicyclo[3.2.1]oct-3-endo-yl}propanamide], the IC50 is less than 2000 nM.
The value for `CC(C)(Oc1ncc(Cl)cc1Cl)C(=O)N[C@H]1C[C@H]2CC[C@@H](C1)N2c1ccc(S(C)(=O)=O)cc1` [Example 175, 2-[(3,5-dichloropyridin-2-yl)oxy]-2-methyl-N-{8-[4-(methylsulfonyl)phenyl]-8-azabicyclo[3.2.1]oct-3-endo-yl}propanamide] was less than 200 nM.
